Literature values, collected in US9446052B2, “Composition for prevention of nausea or vomiting” (SAMYANG BIOPHARMACEUTICALS CORPORATION, priority 2010, dated 2016).

Conditions: pH 6-7.5

Solubility in water: not soluble
Structure (SMILES): Cc1nccn1CC1CCc2c(c3ccccc3n2C)C1=O (stereo not shown) [ondansetron]
